Assay results taken from PubChem BioAssay (NCI).
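The compound was tested at five concentrations on cells cultured in 96-well plates, with a 48-hour exposure period. The concentration for 50% growth inhibition is given as GI50. TGI: total growth inhibition.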

Experiments:
Assay in all cases: NCI-60 cell line screen, 48 h
HOP-62 NSCLC = test system: HOP-62 NSCLC
MOLT-4 leukemia = test system: MOLT-4 leukemia
HS 578T breast = test system: HS 578T breast
SK-MEL-2 melanoma = test system: SK-MEL-2 melanoma
K-562 leukemia = test system: K-562 leukemia
NCI-H23 lung = test system: NCI-H23 lung
U251 CNS = test system: U251 CNS
LOX IMVI melanoma = test system: LOX IMVI melanoma
SNB-78 CNS = test system: SNB-78 CNS

Cc1cc(NCCN(C(C)C)C(C)C)nc(/N=C(\N)Nc2ccc(Cl)c(C(F)(F)F)c2)n1
GI50 (HOP-62 NSCLC): 0.748 µM | TGI (HOP-62 NSCLC): 2 µM | GI50 (MOLT-4 leukemia): 0.383 µM | TGI (MOLT-4 leukemia): 1.47 µM | GI50 (HS 578T breast): 0.473 µM | TGI (HS 578T breast): 1.69 µM | GI50 (SK-MEL-2 melanoma): 0.208 µM | TGI (SK-MEL-2 melanoma): 0.388 µM | GI50 (K-562 leukemia): 0.191 µM | TGI (K-562 leukemia): 0.411 µM | GI50 (NCI-H23 lung): 1.49 µM | TGI (NCI-H23 lung): 3.08 µM | GI50 (U251 CNS): 0.194 µM | TGI (U251 CNS): 0.4 µM | GI50 (LOX IMVI melanoma): 0.193 µM | TGI (LOX IMVI melanoma): 0.365 µM

O=C(NC(=O)c1cn(CCN(CCO)C(=O)NCCCCCCNC(=O)N(CCO)CCn2cc(C(=O)NC(=O)OCc3ccccc3)c(=O)[nH]c2=O)c(=O)[nH]c1=O)OCc1ccccc1
TGI (HOP-62 NSCLC): > 100 µM | TGI (MOLT-4 leukemia): > 100 µM | TGI (SK-MEL-2 melanoma): > 100 µM | TGI (K-562 leukemia): > 100 µM | TGI (SNB-78 CNS): > 100 µM | TGI (NCI-H23 lung): > 100 µM | TGI (U251 CNS): > 100 µM | TGI (LOX IMVI melanoma): > 100 µM

COc1c(O)cc2oc(-c3ccc(O)cc3)cc(=O)c2c1O
TGI (HOP-62 NSCLC): > 100 µM | TGI (MOLT-4 leukemia): 83.2 µM | TGI (HS 578T breast): 73.8 µM | TGI (SK-MEL-2 melanoma): > 100 µM | TGI (K-562 leukemia): > 100 µM | TGI (NCI-H23 lung): > 100 µM | TGI (U251 CNS): > 100 µM | TGI (LOX IMVI melanoma): > 100 µM

CC(=O)C(=Cc1ccc(C=C(C(C)=O)C(C)=O)cc1)C(C)=O
TGI (HOP-62 NSCLC): 6.38 µM | TGI (MOLT-4 leukemia): 3.6 µM | TGI (HS 578T breast): 22.6 µM | TGI (SK-MEL-2 melanoma): 5.54 µM | TGI (K-562 leukemia): 6.12 µM | TGI (NCI-H23 lung): 4.59 µM | TGI (U251 CNS): 4.24 µM | TGI (LOX IMVI melanoma): 1.91 µM

COc1cccc(-c2nn(-c3ccccc3)cc2-c2ccnc(NCCCNC(=O)Nc3ccc(Cl)c(Cl)c3)c2)c1
GI50 (HOP-62 NSCLC): 3.23 µM | TGI (HOP-62 NSCLC): 8.88 µM | GI50 (MOLT-4 leukemia): 1.95 µM | TGI (MOLT-4 leukemia): 5.85 µM | GI50 (HS 578T breast): 2.35 µM | TGI (HS 578T breast): 7.53 µM | GI50 (SK-MEL-2 melanoma): 1.92 µM | TGI (SK-MEL-2 melanoma): 4.07 µM | GI50 (K-562 leukemia): 2.38 µM | TGI (K-562 leukemia): 5.33 µM | GI50 (NCI-H23 lung): 3.16 µM | TGI (NCI-H23 lung): 13.9 µM | GI50 (U251 CNS): 3.1 µM | TGI (U251 CNS): 11.7 µM | GI50 (LOX IMVI melanoma): 1.64 µM | TGI (LOX IMVI melanoma): 3.03 µM
